Reference: ChEMBL document CHEMBL1201862, “PubChem BioAssay data set” (2004)
Calls of active or inactive are those of the source.

Key:
Format in all cases: functional
[1] = molecular target: Multidrug resistance protein CDR1 (Candida albicans, UniProt P43071); test: CaCDR1 efflux pump inhibitors in yeast, dose response, S. cerevisiae AD1-8u, singleplex, Cherry Pick1 hits (AID 588606)
[2] = molecular target: Benomyl/methotrexate resistance protein (Candida albicans, UniProt P28873); test: CaMdr1 efflux pump inhibitor potency, dose response, singleplex, Cherry Pick1 hits (AID 588608)
[3] = molecular target: Multidrug resistance protein CDR2 (Candida albicans (strain SC5314 / ATCC MYA-2876) (Yeast), UniProt P78595); test: CaCDR2 efflux pump inhibitors in yeast, dose response, S. cerevisiae AD1-8u, singleplex, Cherry Pick1 hits (AID 588604)
[4] = molecular target: T1, Low molecular weight phosphotyrosine protein phosphatase (Homo sapiens, UniProt P24666); conditions: read-out: IC50_Mean
T1 sequence (P24666 whole entry): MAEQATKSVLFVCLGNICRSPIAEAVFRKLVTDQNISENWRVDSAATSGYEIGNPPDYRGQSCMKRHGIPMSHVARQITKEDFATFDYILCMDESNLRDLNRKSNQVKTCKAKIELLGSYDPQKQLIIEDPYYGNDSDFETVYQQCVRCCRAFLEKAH

[5] = molecular target: T1, Low molecular weight phosphotyrosine protein phosphatase; conditions: read-out: IC50_Mean; remark: listed apart in the source
Interleukin-8 [6] = molecular target: T2, Interleukin-8 (Homo sapiens, UniProt P10145); test: Dose Response confirmation of uHTS small molecule hits for cystic fibrosis induced NFkb Inhibitors in a TNFa-induced IL8 counterscreen.; conditions: read-out: IC50_Mean
Interleukin-8 [7] = molecular target: T2, Interleukin-8; test: Dose Response confirmation of uHTS small molecule hits for cystic fibrosis induced NFkb Inhibitors in a PAF-induced IL8 counterscreen.; conditions: read-out: IC50_Mean
[8] = molecular target: T3, ATP-dependent translocase ABCB1 (Homo sapiens, UniProt P08183); test: ABCB1 efflux inhibitor potency, dose response, Jurkat-DNR cells, JC-1, flow cytometry, set 2 (AID 504569); conditions: read-out: EC50_MICROM_;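 note: potency of pump inhibitors that raise cellular JC-1 green fluorescence up to the nicardipine level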
[9] = molecular target: T3, ATP-dependent translocase ABCB1; test: ABCG2 efflux pump inhibitor potency, dose response, Ig-MXP3 cells, JC-1, flow cytometry, set 2 (AID 504566); conditions: read-out: EC50_MICROM_;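 note: flow cytometry median green fluorescence of retained JC-1 dye; potency of efflux pump inhibition measured as rising substrate retention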

T2 sequence (P10145 whole entry): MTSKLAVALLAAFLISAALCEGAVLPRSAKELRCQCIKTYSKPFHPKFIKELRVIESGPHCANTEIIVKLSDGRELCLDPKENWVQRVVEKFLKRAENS
T3 sequence (P08183 whole entry): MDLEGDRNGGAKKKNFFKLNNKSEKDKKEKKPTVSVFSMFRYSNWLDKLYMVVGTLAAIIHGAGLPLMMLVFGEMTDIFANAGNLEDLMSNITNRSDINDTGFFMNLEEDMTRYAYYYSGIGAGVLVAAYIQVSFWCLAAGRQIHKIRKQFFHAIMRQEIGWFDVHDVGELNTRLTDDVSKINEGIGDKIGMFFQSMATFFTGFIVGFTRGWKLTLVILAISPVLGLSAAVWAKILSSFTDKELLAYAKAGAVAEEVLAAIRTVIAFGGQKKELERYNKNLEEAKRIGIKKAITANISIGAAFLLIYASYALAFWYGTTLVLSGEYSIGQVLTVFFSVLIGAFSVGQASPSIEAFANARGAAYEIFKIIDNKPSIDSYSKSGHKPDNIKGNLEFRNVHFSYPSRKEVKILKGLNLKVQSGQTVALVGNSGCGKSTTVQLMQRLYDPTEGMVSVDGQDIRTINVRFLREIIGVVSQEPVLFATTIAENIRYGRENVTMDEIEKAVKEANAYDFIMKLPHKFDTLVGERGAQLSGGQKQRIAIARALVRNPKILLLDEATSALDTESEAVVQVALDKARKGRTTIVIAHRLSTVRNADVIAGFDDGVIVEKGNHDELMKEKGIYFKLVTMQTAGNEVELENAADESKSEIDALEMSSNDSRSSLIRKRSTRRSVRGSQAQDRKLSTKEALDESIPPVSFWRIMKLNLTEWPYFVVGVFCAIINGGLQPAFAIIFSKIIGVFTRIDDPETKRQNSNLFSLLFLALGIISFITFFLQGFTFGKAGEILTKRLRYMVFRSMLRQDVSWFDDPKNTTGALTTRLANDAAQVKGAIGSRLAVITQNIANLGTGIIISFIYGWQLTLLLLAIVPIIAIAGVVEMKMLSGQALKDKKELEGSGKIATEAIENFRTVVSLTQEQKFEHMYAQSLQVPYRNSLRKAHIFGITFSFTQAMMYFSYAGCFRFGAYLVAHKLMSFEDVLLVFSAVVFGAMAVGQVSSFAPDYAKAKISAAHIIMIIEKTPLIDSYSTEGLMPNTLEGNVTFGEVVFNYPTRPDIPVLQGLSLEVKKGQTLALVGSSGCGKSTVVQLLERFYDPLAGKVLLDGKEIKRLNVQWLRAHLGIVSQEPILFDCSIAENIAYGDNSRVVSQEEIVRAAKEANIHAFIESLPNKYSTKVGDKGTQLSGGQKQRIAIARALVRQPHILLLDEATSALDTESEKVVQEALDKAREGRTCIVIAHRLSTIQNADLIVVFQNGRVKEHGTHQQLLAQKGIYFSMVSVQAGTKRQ
Sequence of Multidrug resistance protein CDR1 (P43071 whole entry, looked up): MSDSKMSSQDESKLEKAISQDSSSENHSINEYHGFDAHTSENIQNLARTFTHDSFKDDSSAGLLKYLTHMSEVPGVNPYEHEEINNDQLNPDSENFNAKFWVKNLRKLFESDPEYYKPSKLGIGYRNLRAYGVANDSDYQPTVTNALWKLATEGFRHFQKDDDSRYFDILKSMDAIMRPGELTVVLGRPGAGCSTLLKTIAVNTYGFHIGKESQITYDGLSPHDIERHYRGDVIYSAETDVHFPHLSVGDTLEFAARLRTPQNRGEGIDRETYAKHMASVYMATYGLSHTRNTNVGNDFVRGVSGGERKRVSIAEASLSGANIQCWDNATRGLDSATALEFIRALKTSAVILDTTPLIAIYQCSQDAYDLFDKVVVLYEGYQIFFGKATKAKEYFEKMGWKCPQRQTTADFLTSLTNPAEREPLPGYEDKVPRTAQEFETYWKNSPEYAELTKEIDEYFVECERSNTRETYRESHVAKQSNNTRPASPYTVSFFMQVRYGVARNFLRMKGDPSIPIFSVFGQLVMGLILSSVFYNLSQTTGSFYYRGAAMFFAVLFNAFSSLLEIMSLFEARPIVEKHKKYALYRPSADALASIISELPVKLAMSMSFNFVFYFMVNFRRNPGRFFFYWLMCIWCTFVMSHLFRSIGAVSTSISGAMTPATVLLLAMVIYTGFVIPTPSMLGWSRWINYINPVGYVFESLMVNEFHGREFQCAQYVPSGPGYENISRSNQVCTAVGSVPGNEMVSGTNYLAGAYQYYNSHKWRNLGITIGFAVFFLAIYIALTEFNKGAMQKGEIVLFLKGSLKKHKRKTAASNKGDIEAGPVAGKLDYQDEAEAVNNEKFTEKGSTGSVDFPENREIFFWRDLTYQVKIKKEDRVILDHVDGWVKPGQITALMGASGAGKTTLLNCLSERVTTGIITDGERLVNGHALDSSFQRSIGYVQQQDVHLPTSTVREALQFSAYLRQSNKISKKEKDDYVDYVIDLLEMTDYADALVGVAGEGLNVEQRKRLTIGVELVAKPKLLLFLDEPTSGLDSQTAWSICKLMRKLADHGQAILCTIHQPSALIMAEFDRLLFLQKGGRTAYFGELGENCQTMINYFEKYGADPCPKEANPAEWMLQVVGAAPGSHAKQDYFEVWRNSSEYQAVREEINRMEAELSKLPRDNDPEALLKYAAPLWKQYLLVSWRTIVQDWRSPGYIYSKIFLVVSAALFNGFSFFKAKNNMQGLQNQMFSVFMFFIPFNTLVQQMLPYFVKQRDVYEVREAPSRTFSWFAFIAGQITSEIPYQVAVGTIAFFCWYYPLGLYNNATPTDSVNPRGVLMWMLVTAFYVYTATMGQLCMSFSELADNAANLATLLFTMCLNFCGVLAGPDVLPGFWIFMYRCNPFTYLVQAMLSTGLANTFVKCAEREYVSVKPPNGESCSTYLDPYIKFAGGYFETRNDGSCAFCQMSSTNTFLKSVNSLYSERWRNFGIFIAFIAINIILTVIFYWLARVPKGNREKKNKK
Sequence of Multidrug resistance protein CDR2 (P78595 whole entry): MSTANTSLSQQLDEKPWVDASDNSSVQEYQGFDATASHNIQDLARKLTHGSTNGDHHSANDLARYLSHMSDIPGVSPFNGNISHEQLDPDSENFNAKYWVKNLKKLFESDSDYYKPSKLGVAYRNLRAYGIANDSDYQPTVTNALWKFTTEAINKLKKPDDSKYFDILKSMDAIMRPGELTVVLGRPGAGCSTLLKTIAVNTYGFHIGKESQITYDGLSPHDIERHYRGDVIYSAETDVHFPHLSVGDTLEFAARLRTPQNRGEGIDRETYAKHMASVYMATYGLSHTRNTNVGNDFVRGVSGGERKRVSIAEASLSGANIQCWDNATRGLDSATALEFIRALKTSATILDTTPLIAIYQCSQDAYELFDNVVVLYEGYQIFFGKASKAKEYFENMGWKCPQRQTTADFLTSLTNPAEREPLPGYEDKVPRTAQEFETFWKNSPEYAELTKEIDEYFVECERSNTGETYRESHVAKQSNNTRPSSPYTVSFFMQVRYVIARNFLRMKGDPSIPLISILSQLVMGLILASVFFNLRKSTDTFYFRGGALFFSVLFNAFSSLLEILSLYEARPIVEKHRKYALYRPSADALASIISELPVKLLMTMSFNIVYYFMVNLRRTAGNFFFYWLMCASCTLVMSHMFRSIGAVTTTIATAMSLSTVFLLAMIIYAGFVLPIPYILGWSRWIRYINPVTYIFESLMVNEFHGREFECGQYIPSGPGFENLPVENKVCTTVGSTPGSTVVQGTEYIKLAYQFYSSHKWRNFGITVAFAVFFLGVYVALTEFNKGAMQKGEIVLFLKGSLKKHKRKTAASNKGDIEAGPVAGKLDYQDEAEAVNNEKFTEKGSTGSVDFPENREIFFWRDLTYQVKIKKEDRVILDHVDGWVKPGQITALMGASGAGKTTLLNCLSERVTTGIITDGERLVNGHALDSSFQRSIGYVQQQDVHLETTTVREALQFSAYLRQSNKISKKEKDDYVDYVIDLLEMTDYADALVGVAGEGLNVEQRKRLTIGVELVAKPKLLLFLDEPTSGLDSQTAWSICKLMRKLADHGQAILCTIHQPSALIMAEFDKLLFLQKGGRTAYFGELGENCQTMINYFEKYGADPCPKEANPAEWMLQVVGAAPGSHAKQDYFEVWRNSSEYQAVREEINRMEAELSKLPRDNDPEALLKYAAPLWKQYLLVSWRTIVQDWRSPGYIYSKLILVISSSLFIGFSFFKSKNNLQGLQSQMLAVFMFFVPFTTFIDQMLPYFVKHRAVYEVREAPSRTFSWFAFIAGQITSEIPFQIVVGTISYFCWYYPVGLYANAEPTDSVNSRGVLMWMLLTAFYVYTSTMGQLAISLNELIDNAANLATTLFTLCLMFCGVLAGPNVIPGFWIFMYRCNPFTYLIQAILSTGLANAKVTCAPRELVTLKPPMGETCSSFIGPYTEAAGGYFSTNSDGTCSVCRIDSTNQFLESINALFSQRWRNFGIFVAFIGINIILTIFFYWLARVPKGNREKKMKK
Sequence of Benomyl/methotrexate resistance protein (P28873 whole entry): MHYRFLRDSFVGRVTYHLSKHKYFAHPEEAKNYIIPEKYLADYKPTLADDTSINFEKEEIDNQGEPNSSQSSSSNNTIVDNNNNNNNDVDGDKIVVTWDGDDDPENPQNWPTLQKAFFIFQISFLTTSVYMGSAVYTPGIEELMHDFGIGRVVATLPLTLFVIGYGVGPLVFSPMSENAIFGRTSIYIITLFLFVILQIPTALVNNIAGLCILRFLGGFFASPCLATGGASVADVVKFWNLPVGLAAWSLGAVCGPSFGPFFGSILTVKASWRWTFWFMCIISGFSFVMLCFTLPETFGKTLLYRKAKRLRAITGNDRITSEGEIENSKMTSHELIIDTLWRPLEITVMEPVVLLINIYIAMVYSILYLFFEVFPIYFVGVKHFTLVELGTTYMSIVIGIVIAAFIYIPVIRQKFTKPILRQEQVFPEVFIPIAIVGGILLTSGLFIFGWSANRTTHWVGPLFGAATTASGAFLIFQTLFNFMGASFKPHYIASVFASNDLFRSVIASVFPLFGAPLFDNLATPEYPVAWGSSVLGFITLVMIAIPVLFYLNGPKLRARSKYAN

With `COc1cc(OC)cc(-c2sc3ccc(OC)cc3c2-c2ccc(OCCN3CCCCC3)cc2)c1` the EC50 [1] was 10.7 µM (active), the EC50 [2] was 10.6 µM (active) and the EC50 [3] was 7.51 µM (active).

`COCCNc1nc(NCc2cnc(C)cn2)c2sccc2n1` was tested, and the IC50 [4] was 20.4 µM (inactive) and the IC50 [5] was 13.5 µM (active).

For `C=Cc1ccc(CC2(C)C(=O)Nc3ccc(-c4cccnc4)cc32)cc1` (centres undefined), the IC50 (Interleukin-8 [6]) was 45.1 µM (inactive) and the IC50 (Interleukin-8 [7]) was 25.5 µM (inactive).

For `Cc1ccc(-c2cc3nc(-c4ccccc4)cc(N4CCN(C(=O)c5ccco5)CC4)n3n2)cc1`, the EC50 [8] was 2.41 µM (active) and the EC50 [9] was 0.95 µM (active).
